This note sets out measurements from ChEMBL document CHEMBL1137773, “Novel lead structures for p38 MAP kinase via FieldScreen virtual screening” (J Med Chem, 2009).

Structures are written as SMILES. pIC50: −log10 of the molar value.

A short description of assay [1]: Inhibition of p38 MAPK at 10 uM by ELISA. (An ELISA detects its analyte on a solid surface through an enzyme-linked reagent.)
Assay [2] in a line: Inhibition of p38 MAPK by ELISA.

With `Oc1ccc2ccccc2c1C1NN=C(c2ccccc2)S1` (stereo unspecified), in assay [1], the inhibition is 21%.

Turning to `Brc1ccccc1-c1nnc2sc(COc3ccccc3)nn12`, in assay [1], the inhibition came to 80%. Further, in assay [2], the pIC50 was 5.91.

The compound `Cc1ccc(NC(=O)Nc2c(Cl)cccc2Cl)c2c1CC(C)(C)O2` displayed an inhibition in assay [1] of 66%.

In turn, `FC(F)(F)c1nnc2sc(COc3ccccc3)nn12` came in with an inhibition in assay [1] of 16%.

The compound `Cc1onc(-c2c(Cl)cccc2Cl)c1C(=O)N1CCCCC1C` (stereo unspecified) showed an inhibition in assay [1] of 14%.

`CCn1c(SCc2ccccc2Cl)nc2ccccc2c1=O` showed an inhibition in assay [1] of 28%.

For `CC(C)(C)c1nnc2sc(COc3ccccc3)nn12`, the inhibition in assay [1] stood at 61%. This compound also had a pIC50 in assay [2] of 5.40.

In assay [1], `COc1ccc(OCc2nnc3sc(-c4ccccc4Cl)nn23)cc1` showed an inhibition of 34%.

In assay [1], `COc1ccc(Cc2nn3c(-c4ccccc4Cl)nnc3s2)cc1` registered an inhibition of 83%. Further, in assay [2], the pIC50 is 6.36.

`Cc1ccccc1OCc1nn2c(-c3ccccc3Cl)nnc2s1` showed an inhibition in assay [1] of 65%. The pIC50 in assay [2] is 5.45.

Regarding `CCSc1ccccc1C(=O)N1CCc2ccccc21`, the inhibition in assay [1] came out at 4%.

`Cc1occc1-c1nnc2sc(C(C)Oc3ccccc3)nn12` (stereo unspecified): the inhibition in assay [1] was found to be 30%.

As for `CC(C)(Oc1ccccc1)c1nn2c(-c3ccoc3)nnc2s1`, the inhibition in assay [1] was found to be 24%.

Compound `Cc1cccc(CC(=O)N(c2ccc(Br)cc2)C2C=CS(=O)(=O)C2)c1` (stereo unspecified) returned an inhibition in assay [1] of 2%.

In the case of `Cc1cccc(OCc2nn3c(-c4ccccc4Cl)nnc3s2)c1`, the inhibition in assay [1] amounted to 76%. Further, the pIC50 in assay [2] was 5.70.

For `O=C(c1cn(Cc2ccccc2F)c2ccccc12)C1CC1`, in assay [1], the inhibition stood at 23%.

Take `Fc1ccccc1-c1nnc2sc(COc3ccccc3)nn12`: in assay [1], the inhibition is 73%. In assay [2], this compound gave a negative logarithm of the IC50 (pIC50) of 5.51.

Regarding `CC(C)(C)c1nnc2sc(COc3ccc(F)cc3)nn12`, the inhibition in assay [1] is 53%. Besides, the pIC50 in assay [2] is 5.33.

`CCC(Oc1ccccc1)c1nn2c(-c3ccoc3C)nnc2s1` (stereo unspecified) had an inhibition in assay [1] of 31%.

For `CC(C)Oc1ccc(OCCSc2nc(=O)c3ccccc3[nH]2)cc1`, the inhibition in assay [1] is 23%.

Consider `Clc1ccccc1-c1nnc2sc(COc3ccccc3)nn12`, for which, in assay [1], the inhibition was 76%. For the same compound, in assay [2], the pIC50 is 6.10.

`Cc1ccccc1Cc1nnc2sc(COc3ccc(F)cc3)nn12` gave an inhibition in assay [1] of 36%.

In assay [1], `Cc1nn(Cc2ccccc2)c2c1C(c1ccc(Br)cc1)C(C#N)=C(N)O2` (stereo unspecified) displayed an inhibition of 40%.

As for `COc1ccc(OCc2nn3c(-c4ccccc4Cl)nnc3s2)cc1`, the inhibition in assay [1] amounted to 64%. The compound further had a pIC50 in assay [2] of 5.41.

Take `Clc1ccccc1-c1nnc2sc(CCc3ccccc3)nn12`: the inhibition in assay [1] came out at 72%. The pIC50 in assay [2] was 5.59.

The compound `Cc1nnc2sc(COc3ccccc3)nn12` showed an inhibition in assay [1] of 18%.

Compound `COc1cccc(OCc2nn3c(-c4ccccc4)nnc3s2)c1` had an inhibition in assay [1] of 11%.

`CC1Cc2nc(SCC(N)=O)n(-c3ccc(F)cc3)c(=O)c2S1` (stereo unspecified) displayed an inhibition in assay [1] of 4%.

`Cc1occc1-c1nnc2sc(COc3ccc(F)cc3)nn12` had an inhibition in assay [1] of 21%.

In the case of `Fc1ccc(-c2nnc3sc(CCc4ccccc4)nn23)cc1`, the inhibition in assay [1] stood at 32%.

For `COc1ccc(OCc2nn3c(-c4ccc(Cl)cc4Cl)nnc3s2)cc1`, the inhibition in assay [1] stood at 31%.

As for `CCc1cc2c(SCC(=O)Nc3ccc(Br)cc3)ncnc2s1`, in assay [1], the inhibition worked out at 14%.

Compound `c1ccc(CCc2nn3c(-c4ccncc4)nnc3s2)cc1` displayed an inhibition in assay [1] of 26%.

`Cn1nc(CC(=O)Nc2ccc(Br)cc2)c2ccccc2c1=O` had an inhibition in assay [1] of 15%.

`COc1ccccc1NC1CC(=O)N(c2ccc(Cl)cc2)C1=O` (stereo unspecified) had an inhibition in assay [1] of 20%.

Turning to `O=C(Nc1ccc(F)cc1)c1cccc(S(=O)(=O)Nc2ccccc2)c1`, the inhibition in assay [1] came to 15%.

The compound `COc1ccccc1Cc1nnc2sc(COc3ccccc3)nn12` had an inhibition in assay [1] of 77%. In assay [2], the pIC50 is 6.13.

On to `CC(C)(C)c1ccc(OCc2nn3c(Cc4ccccc4)nnc3s2)cc1`, for which, in assay [1], the inhibition amounted to 12%.

`COc1ccc(-c2nnc3sc(COc4ccc(F)cc4)nn23)cc1` came in with an inhibition in assay [1] of 31%.

Turning to `Fc1ccc(OCc2nn3c(Cc4ccccc4)nnc3s2)cc1`, in assay [1], the inhibition worked out at 32%.

In turn, `Cc1sc2ncnc(SCC(=O)c3ccc(F)cc3)c2c1C` yielded an inhibition in assay [1] of 24%.

Take `CCOC(=O)C(C)Sc1nc2c(c(=O)n1-c1ccc(F)cc1)SCC2` (stereo unspecified): in assay [1], the inhibition stood at 23%.

Compound `Cc1cc(-c2nnc3sc(COc4ccc(F)cc4)nn23)n(C)n1` displayed an inhibition in assay [1] of 22%.

The compound `CCC(O)Cc1nc(N)c(C#N)c(-c2ccccc2OC)c1C` (stereo unspecified) came in with an inhibition in assay [1] of 20%.

`Clc1cccc(-c2nnc3sc(COc4ccccc4)nn23)c1` displayed an inhibition in assay [1] of 3%.

For `C=CCNc1sc(C(=O)c2ccc(F)cc2)c(N)c1C#N`, the inhibition in assay [1] stood at 46%.

Regarding `Clc1ccc(-c2nnc3sc(CCc4ccccc4)nn23)c(Cl)c1`, the inhibition in assay [1] came out at 45%.

In assay [1], `COc1ccccc1Cc1nnc2sc(COc3ccc(F)cc3)nn12` showed an inhibition of 79%. For the same compound, in assay [2], the pIC50 is 6.19.

`CCc1ccc(OCC(=O)Nc2cccc3nc(C)ccc23)cc1`: the inhibition in assay [1] is 4%.

For `Cc1sc(NC(=O)c2ccc(Cl)cc2)c(C(=O)c2ccccc2)c1C`, the inhibition in assay [1] stood at 31%.

For the compound `Cc1ccc(CNC(=O)CN(c2cccc(Cl)c2)S(C)(=O)=O)cc1`, in assay [1], the inhibition came out at 1%.

In assay [1], `c1ccc(OCc2nn3c(-c4ccccc4)nnc3s2)cc1` yielded an inhibition of 39%.

Take `NC(=O)C(c1ccc(Cl)cc1)c1ccc(C(=O)c2ccccc2)cc1` (stereo unspecified): the inhibition in assay [1] was 26%.

Consider `Cc1ccccc1Cc1nnc2sc(COc3ccccc3)nn12`, for which the inhibition in assay [1] is 33%.

As a reminder, the inhibition is the percentage by which the read-out fell short of the control. The low end stands for little suppression, the high end for strong suppression. What is called pIC50 is −log10 of the IC50, conventionally taken in molar units. Read a low pIC50 as a high IC50.
